Source: patent publication US10287269B2, “Pyrazolyl pyrimidinone compounds as PDE2 inhibitors” (Merck Sharp & Dohme Corp., priority 2015, dated 2019)
Read-outs that look alike come from different tables or passages of the source.

Target: T1, Rhesus PDE2A3 (Macaca mulatta, UniProt B3VTJ2)
T1 construct: made in house; host or cells: AD293 cells, transient transfection, pcDNA3.3-TOPO; lysate supernatant used as enzyme
T1 sequence (B3VTJ2 1-941): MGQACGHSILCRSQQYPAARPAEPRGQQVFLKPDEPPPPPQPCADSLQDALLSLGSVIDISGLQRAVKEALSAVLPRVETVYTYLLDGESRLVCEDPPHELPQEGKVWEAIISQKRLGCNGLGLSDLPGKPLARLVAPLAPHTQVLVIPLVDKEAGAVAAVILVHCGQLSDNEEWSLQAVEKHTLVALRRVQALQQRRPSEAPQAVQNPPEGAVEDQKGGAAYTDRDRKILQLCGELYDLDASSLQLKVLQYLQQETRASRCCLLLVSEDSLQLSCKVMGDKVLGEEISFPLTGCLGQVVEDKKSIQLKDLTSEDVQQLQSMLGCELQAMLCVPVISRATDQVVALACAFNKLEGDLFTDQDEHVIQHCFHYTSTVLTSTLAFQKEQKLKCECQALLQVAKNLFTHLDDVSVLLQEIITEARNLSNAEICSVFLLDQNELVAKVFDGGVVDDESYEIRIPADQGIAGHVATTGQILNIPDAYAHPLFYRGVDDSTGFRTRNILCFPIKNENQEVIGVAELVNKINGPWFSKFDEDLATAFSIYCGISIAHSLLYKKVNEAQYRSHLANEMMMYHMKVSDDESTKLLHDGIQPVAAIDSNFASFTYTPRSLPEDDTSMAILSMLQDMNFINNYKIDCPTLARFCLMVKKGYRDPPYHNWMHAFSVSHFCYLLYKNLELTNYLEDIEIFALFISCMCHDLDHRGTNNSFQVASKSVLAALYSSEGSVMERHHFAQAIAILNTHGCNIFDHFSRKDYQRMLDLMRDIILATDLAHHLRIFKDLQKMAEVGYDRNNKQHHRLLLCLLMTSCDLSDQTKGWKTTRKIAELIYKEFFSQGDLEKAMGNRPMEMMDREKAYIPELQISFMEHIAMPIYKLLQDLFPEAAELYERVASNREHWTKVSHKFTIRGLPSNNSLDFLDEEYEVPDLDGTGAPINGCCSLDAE
Assay: PDE2 fluorescence polarization (IMAP FP) inhibition assay, rhesus enzyme
Type: biochemical, rhesus macaque
Procedure, shortened: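 Lysate of AD293 cells transiently expressing rhesus PDE2A3, diluted for ~20% substrate conversion, with 50 nM FAM-cAMP and 1 uM cGMP activator in pH 7.2 Tris/MgCl2 buffer, 60 min at room temperature.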

[1] = Lab A, read-out: Rhesus PDE2 Ki (nM) Lab A
[2] = Lab B, read-out: Rhesus PDE2 Ki (nM) Lab B

Ki [1]	Ki [2]	Compound
58.8 nM	30.7 nM	CC(C)c1nc(-c2cnn(C(C)c3ccc(C(F)(F)F)cc3F)c2)cc(=O)[nH]1 (stereo not drawn) [Example 9, 6-(1-(1-(2-Fluoro-4-(trifluoromethyl)phenyl)ethyl)-1H-pyrazol-4-yl)-2-isopropylpyrimidin-4(3H)-one]
25 nM	–	CC(c1ccc(C(F)(F)F)cc1F)n1cc(-c2cc(=O)[nH]c(C3CC3)n2)cn1 (stereo not drawn) [Example 10]
–	1210 nM	Cc1nc(-c2cnn(Cc3ccc(OC(F)(F)F)cc3)c2)cc(=O)[nH]1 [Example 29, 2-Methyl-6-(1-(4-(trifluoromethoxy)benzyl)-1H-pyrazol-4-yl)pyrimidin-4(3H)-one]
–	2940 nM	Cc1nc(-n2cc(Cc3ccc(OC(F)(F)F)cc3)cn2)cc(=O)[nH]1 [Example 30, 2-Methyl-6-(4-(4-(trifluoromethoxy)benzyl)-1H-pyrazol-1-yl)pyrimidin-4(3H)-one]
36.6 nM	19.7 nM	CCC(c1ccc(C(F)(F)F)cc1F)n1cc(-c2cc(=O)[nH]c(C)n2)cn1 (stereo not drawn) [Example 33, 6-(1-(1-(2-fluoro-4-(trifluoromethyl)phenyl)propyl)-1H-pyrazol-4-yl)-2-methylpyrimidin-4(3H)-one]
54.6 nM	26.9 nM	Cc1nc(-c2cnn(C(c3ccc(C(F)(F)F)cc3F)C(C)C)c2)cc(=O)[nH]1 (stereo not drawn) [Example 34, 6-(1-(1-(2-fluoro-4-(trifluoromethyl)phenyl)-2-methylpropyl)-1H-pyrazol-4-yl)-2-methylpynmidin-4(3H)-one]
38.3 nM	17.3 nM	CC(c1ccc(C(F)(F)F)cc1F)n1cc(-c2cc(=O)[nH]c(Cc3ccccc3)n2)cn1 (stereo not drawn) [Example 35, 2-benzyl-6-(1-(1-(2-fluoro-4-(trifluoromethyl)phenyl)ethyl)-1H-pyrazol-4-yl)pyrimidin-4(3H)-one]
25.7 nM	–	CCc1nc(-c2cnn(C(C)c3ccc(C(F)(F)F)cc3F)c2)cc(=O)[nH]1 (stereo not drawn) [Example 36, 2-ethyl-6-(1-(1-(2-fluoro-4-(trifluoromethyl)phenyl)ethyl)-1H-pyrazol-4-yl)pyrimidin-4(3H)-one]
13.1 nM	–	Cc1nc(-c2cnn(C3(c4ccc(C(F)(F)F)cc4F)CCC3)c2)cc(=O)[nH]1 [Example 37, 6-(1-(1-(2-fluoro-4-(trifluoromethyl)phenyl)cyclobutyl)-1H-pyrazol-4-yl)-2-methylpyrimidin-4(3H)-one]
–	99.9 nM	Cc1nc(-n2cc(C(C)c3ccc(C4CC4)cc3)cn2)cc(=O)[nH]1 (stereo not drawn) [Example 39, 6-(4-(1-(4-cyclopropylphenyl)ethyl)-1H-pyrazol-1-yl)-2-methylpyrimidin-4(3H)-one]
–	211 nM	Cc1nc(-n2cc(C(C)c3ccc(C4(C)CC4)cc3)cn2)cc(=O)[nH]1 (stereo not drawn) [Example 40, 2-methyl-6-(4-(1-(4-(1-methylcyclopropyl)phenyl)ethyl)-1H-pyrazol-1-yl)pyrimidin-4(3H)-one]
–	333 nM	Cc1nc(-n2cc(Cc3ccc(C(F)(F)F)cc3)cn2)cc(=O)[nH]1 [Example 48, 2-methyl-6-(4-(4-(trifluoromethyl)benzyl)-1H-pyrazol-1-yl)pyrimidin-4(3H)-one]
–	194 nM	Cc1nc(-c2cn(C(C)c3ccc(C(F)(F)F)cc3)nc2C)cc(=O)[nH]1 (stereo not drawn) [Example 80, 2-methyl-6-(3-methyl-1-(1-(4-(trifluoromethyl)phenyl)ethyl)-1H-pyrazol-4-yl)pyrimidin-4(3H)-one]
–	306 nM	Cc1nc(-c2cnn(C(C)c3ccc(C(F)(F)F)cc3)c2)cc(=O)[nH]1 (stereo not drawn) [Example 126, 2-methyl-6-(1-(1-(4-(trifluoromethyl)phenyl)ethyl)-1H-pyrazol-4-yl)pyrimidin-4(3H)-one]
–	184 nM	CCC(c1ccc(C(F)(F)F)cc1)c1cnn(-c2cc(=O)[nH]c(C)n2)c1 (stereo not drawn) [Example 129, 2-methyl-6-(4-(1-(4-(trifluoromethyl)phenyl)propyl)-1H-pyrazol-1-yl)pyrimidin-4(3H)-one]
–	138 nM	Cc1nc(-n2cc(C(c3ccc(C(F)(F)F)cc3)C(C)C)cn2)cc(=O)[nH]1 (stereo not drawn) [Example 130]
1.3 nM	0.6 nM	COc1ccc(Cc2nc(-n3cc(C(C)c4ccc(C(F)(F)F)cc4)cn3)cc(=O)[nH]2)cc1OC (stereo not drawn) [Example 137, 2-(3,4-dimethoxybenzyl)-6-(4-(1-(4-(trifluoromethyl)phenyl)ethyl)-1H-pyrazol-1-yl)pyrimidin-4(3H)-one]
–	825 nM	Cc1ccc(C(C)n2cc(-c3cc(=O)[nH]c(C)n3)cn2)cc1 (stereo not drawn) [Example 153, 2-methyl-6-(1-(1-(p-tolyl)ethyl)-1H-pyrazol-4-yl)pyrimidin-4(3H)-one]
–	244 nM	CCCC(c1ccc(C(F)(F)F)cc1)n1cc(-c2cc(=O)[nH]c(C)n2)cn1 (stereo not drawn) [Example 154, 2-methyl-6-(1-(1-(4-(trifluoromethyl)phenyl)butyl)-1H-pyrazol-4-yl)pynmidin-4(3H)-one]
